Patent US6472348B1, “Pyridone derivatives and herbicides” (Kumiai Chemical Industry Co., Ltd., priority 1996, dated 2002)

What was measured:
green foxtail (Se) [1] = test: Test Example 4: crop plant selectivity by upland field soil treatment (cotton), herbicidal effects; assay type: in vivo; parameters: scale not given here; conditions: dose 6.3 g ai/10 a, evaluated 21st day after application
In short: (§1)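 Cotton and weeds (incl. China jute, pale smartweed, slender amaranth) sown in sand-filled pots and covered with soil, then soil-treated. Grown in greenhouse; herbicidal effect and cotton phytotoxicity scored on day 21 after application against a rating standard.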

pale smartweed (Po) [2] = test: as above; assay type: in vivo; parameters: scale not given here; conditions: dose 6.3 g ai/10 a, evaluated 21st day after application
In short: as §1

China jute (Ab) [3] = test: as above; assay type: in vivo; parameters: scale not given here; conditions: dose 6.3 g ai/10 a, evaluated 21st day after application
In short: as §1

[4] = system: common lambsquarters (Ch); test: as above; assay type: in vivo; parameters: scale not given here; conditions: dose 6.3 g ai/10 a, evaluated 21st day after application
In short: as §1

slender amaranth (Am) [5] = test: as above; assay type: in vivo; parameters: scale not given here; conditions: dose 6.3 g ai/10 a, evaluated 21st day after application
In short: as §1

green foxtail (Se) [6] = test: Test Example 5: crop plant selectivity by upland field soil treatment (wheat), herbicidal effects; assay type: in vivo; parameters: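 grade of growth control; 5 = at least 90%; 4 = 70 to 90%; 3 = 50 to 70%; 2 = 30 to 50%; 1 = 10 to 30%; 0 = under 10%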; conditions: dose 6.3 g ai/10a, 21st day after application
In short: (§2)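 Pots of sand sown with wheat and weeds (incl. Digitaria ciliaris, green foxtail, slender amaranth), seeds covered with soil, soil-applied treatment. Grown in greenhouse; herbicidal effect and crop phytotoxicity scored visually on day 21 after application against a rating scale.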

pale smartweed (Po) [7] = test: as above; assay type: in vivo; parameters: scale not given here; conditions: dose 6.3 g ai/10a, 21st day after application
In short: as §2

China jute (Ab) [8] = test: as above; assay type: in vivo; parameters: scale not given here; conditions: dose 6.3 g ai/10a, 21st day after application
In short: as §2

[9] = system: common lambsquarters (Ch); test: as above; assay type: in vivo; parameters: scale not given here; conditions: dose 6.3 g ai/10a, 21st day after application
In short: as §2

slender amaranth (Am) [10] = test: as above; assay type: in vivo; parameters: scale not given here; conditions: dose 6.3 g ai/10a, 21st day after application
In short: as §2

barnyardgrass (Ec) [11] = test: Test Example 3: herbicidal effects by upland field foliage treatment; assay type: in vivo; parameters: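 grade of growth control; 5 = at least 90%; 4 = 70 to 90%; 3 = 50 to 70%; 2 = 30 to 50%; 1 = 10 to 30%; 0 = under 10%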; conditions: 100 g active ingredient per 10 ares, evaluated 14th day after treatment
In short: (§3)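 Weeds sown in sand-filled pots and grown 2 weeks in a greenhouse before foliage treatment. Plants then kept in the greenhouse; herbicidal effect scored on day 14 after treatment against a graded standard scale.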

Diaitaria ciliaris (Di) = test: as above; assay type: in vivo; parameters: scale not given here; conditions: 100 g active ingredient per 10 ares, evaluated 14th day after treatment
In short: as §3

rice flatsedge (Ci) [12] = test: as above; assay type: in vivo; parameters: scale not given here; conditions: 100 g active ingredient per 10 ares, evaluated 14th day after treatment
In short: as §3

pale smartweed (Po) [13] = test: as above; assay type: in vivo; parameters: scale not given here; conditions: 100 g active ingredient per 10 ares, evaluated 14th day after treatment
In short: as §3

[14] = system: common lambsquarters (Ch); test: as above; assay type: in vivo; parameters: scale not given here; conditions: 100 g active ingredient per 10 ares, evaluated 14th day after treatment
In short: as §3

slender amaranth (Am) [15] = test: as above; assay type: in vivo; parameters: scale not given here; conditions: 100 g active ingredient per 10 ares, evaluated 14th day after treatment
In short: as §3

corn (Ze) [16] = test: Test Example 7: crop plant selectivity by upland field soil treatment (corn), phytotoxicity; assay type: in vivo; parameters: scale not given here; conditions: dose 6.3 g ai/10a, 21st day after application
In short: (§4)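 Corn and weeds (green foxtail, pale smartweed, slender amaranth, common lambsquarters, China jute) sown in sand-filled pots, covered with soil and treated by soil application. Grown in a greenhouse; herbicidal effect and crop phytotoxicity scored on day 21 after application using a fixed rating scale.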

monochoria (Mo) = test: Test Example 1: herbicidal effects by paddy field soil treatment; assay type: in vivo; conditions: 100 g of the active ingredient per 10 ares, 21st day after the application, index 0-5 of Table 47;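 further: grade of growth control; 5 = at least 90%; 4 = 70 to 90%; 3 = 50 to 70%; 2 = 30 to 50%; 1 = 10 to 30%; 0 = under 10%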
In short: (§5)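 Scoring of herbicidal effect came 21 days after application of 100 g active ingredient per 10 ares to flooded (3 cm) paddy-soil pots sown with barnyardgrass, monochoria and bulrush, kept in a greenhouse.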

barnyardgrass (Ec) [17] = test: as above; assay type: in vivo; conditions: 100 g of the active ingredient per 10 ares, 21st day after the application, index 0-5 of Table 47
In short: as §5

bulrush (Sc) = test: as above; assay type: in vivo; conditions: 100 g of the active ingredient per 10 ares, 21st day after the application, index 0-5 of Table 47;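 further: grade of growth control; 5 = at least 90%; 4 = 70 to 90%; 3 = 50 to 70%; 2 = 30 to 50%; 1 = 10 to 30%; 0 = under 10%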
In short: as §5

wheat (Tr) = test: Test Example 5: crop plant selectivity by upland field soil treatment (wheat), phytotoxicity; assay type: in vivo; parameters: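 grade of crop injury; 5 = at least 90%; 4 = 70 to 90%; 3 = 50 to 70%; 2 = 30 to 50%; 1 = 10 to 30%; 0 = under 10%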; conditions: dose 6.3 g ai/10a, 21st day after application
In short: as §2

cotton (Go) = test: Test Example 4: crop plant selectivity by upland field soil treatment (cotton), phytotoxicity; assay type: in vivo; parameters: scale not given here; conditions: dose 6.3 g ai/10 a, evaluated 21st day after application
In short: as §1

soybean (Gl) = test: Test Example 6: crop plant selectivity by upland field soil treatment (soybean), phytotoxicity; assay type: in vivo; parameters: scale not given here; conditions: dose 6.3 g ai/10a, 21st day after application
In short: (§6)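 Seeds are sown in sand and covered with soil. The soil is treated with test compound. Pots are kept in a greenhouse. Weed control and soybean damage are rated visually 21 days after application.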

green foxtail (Se) [18] = test: Test Example 7: crop plant selectivity by upland field soil treatment (corn), herbicidal effects; assay type: in vivo; parameters: scale not given here; conditions: dose 6.3 g ai/10a, 21st day after application
In short: as §4

pale smartweed (Po) [19] = test: as above; assay type: in vivo; parameters: scale not given here; conditions: dose 6.3 g ai/10a, 21st day after application
In short: as §4

China jute (Ab) [20] = test: as above; assay type: in vivo; parameters: scale not given here; conditions: dose 6.3 g ai/10a, 21st day after application
In short: as §4

[21] = system: common lambsquarters (Ch); test: as above; assay type: in vivo; parameters: scale not given here; conditions: dose 6.3 g ai/10a, 21st day after application
In short: as §4

slender amaranth (Am) [22] = test: as above; assay type: in vivo; parameters: scale not given here; conditions: dose 6.3 g ai/10a, 21st day after application
In short: as §4

green foxtail (Se) [23] = test: Test Example 6: crop plant selectivity by upland field soil treatment (soybean), herbicidal effects; assay type: in vivo; parameters: scale not given here; conditions: dose 6.3 g ai/10a, 21st day after application
In short: as §6

pale smartweed (Po) [24] = test: as above; assay type: in vivo; parameters: scale not given here; conditions: dose 6.3 g ai/10a, 21st day after application
In short: as §6

China jute (Ab) [25] = test: as above; assay type: in vivo; parameters: scale not given here; conditions: dose 6.3 g ai/10a, 21st day after application
In short: as §6

[26] = system: common lambsquarters (Ch); test: as above; assay type: in vivo; parameters: scale not given here; conditions: dose 6.3 g ai/10a, 21st day after application
In short: as §6

slender amaranth (Am) [27] = test: as above; assay type: in vivo; parameters: scale not given here; conditions: dose 6.3 g ai/10a, 21st day after application
In short: as §6

barnyardgrass (Ec) [28] = test: Test Example 2: herbicidal effects by upland field soil treatment; assay type: in vivo; conditions: 100 g of the active ingredient per 10 ares, evaluated on the 21st day after application;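 further: grade of growth control; 5 = at least 90%; 4 = 70 to 90%; 3 = 50 to 70%; 2 = 30 to 50%; 1 = 10 to 30%; 0 = under 10%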
Description: (§7) (Test on Herbicidal Effects by Upland Field Soil Treatment)

Digitaria ciliaris (Di) = test: as above; assay type: in vivo; conditions: 100 g of the active ingredient per 10 ares, evaluated on the 21st day after application;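 further: grade of growth control; 5 = at least 90%; 4 = 70 to 90%; 3 = 50 to 70%; 2 = 30 to 50%; 1 = 10 to 30%; 0 = under 10%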
Description: as §7

rice flatsedge (Ci) [29] = test: as above; assay type: in vivo; conditions: 100 g of the active ingredient per 10 ares, evaluated on the 21st day after application
Description: as §7

pale smartweed (Po) [30] = test: as above; assay type: in vivo; conditions: 100 g of the active ingredient per 10 ares, evaluated on the 21st day after application
Description: as §7

[31] = system: common lambsquarters (Ch); test: as above; assay type: in vivo; conditions: 100 g of the active ingredient per 10 ares, evaluated on the 21st day after application
Description: as §7

slender amaranth (Am) [32] = test: as above; assay type: in vivo; conditions: 100 g of the active ingredient per 10 ares, evaluated on the 21st day after application
Description: as §7

corn (Ze) [33] = test: Test Example 11: crop plant selectivity by upland field foliage treatment (corn), phytotoxicity; conditions: upland field foliage treatment, dose 1.6 g ai/10a, 14th day after treatment
Method: (§8) (Test on Crop Plant Selectivity by Upland Field Foliage Treatment)
(§9) In a plastic pot (surface area: 600 cm^2) filled with sand, corn (Ze), pale smartweed (Po), slender amaranth (Am), common lambsquarters (Ch) and China jute (Ab) were sown and cultured in a green house for 2 weeks. […] The plants were then cultured in a green house, and the evaluation of the herbicidal effects and phytotoxicity was conducted on the 14th day after the treatment in accordance with the standards as identified in Table 47.

pale smartweed (Po) [34] = test: Test Example 11: crop plant selectivity by upland field foliage treatment (corn), herbicidal effects; assay type: in vivo; parameters: scale not given here; conditions: upland field foliage treatment (corn test), dose 1.6 g ai/10a, 14th day after treatment
Method: as §8, §9

China jute (Ab) [35] = test: as above; assay type: in vivo; parameters: scale not given here; conditions: upland field foliage treatment (corn test), dose 1.6 g ai/10a, 14th day after treatment
Method: as §8, §9

[36] = system: common lambsquarters (Ch); test: as above; assay type: in vivo; parameters: scale not given here; conditions: upland field foliage treatment (corn test), dose 1.6 g ai/10a, 14th day after treatment
Method: as §8, §9

slender amaranth (Am) [37] = test: as above; assay type: in vivo; parameters: scale not given here; conditions: upland field foliage treatment (corn test), dose 1.6 g ai/10a, 14th day after treatment
Method: as §8, §9

COCCOCOc1cc(-c2ccc(C(F)(F)F)n(C)c2=O)c(F)cc1Cl [Compound 1-207]
Herbicidal effects Se (green foxtail (Se) [1]): 5
Herbicidal effects Po (pale smartweed (Po) [2]): 5
Herbicidal effects Ab (China jute (Ab) [3]): 5
Herbicidal effects Ch [4]: 5
Herbicidal effects Am (slender amaranth (Am) [5]): 5
Herbicidal effects Se (green foxtail (Se) [6]): 5
Herbicidal effects Po (pale smartweed (Po) [7]): 5
Herbicidal effects Ab (China jute (Ab) [8]): 5
Herbicidal effects Ch [9]: 5
Herbicidal effects Am (slender amaranth (Am) [10]): 5
Herbicidal effects Ec (barnyardgrass (Ec) [11]): 5
Herbicidal effects Di (Diaitaria ciliaris (Di)): 5
Herbicidal effects Ci (rice flatsedge (Ci) [12]): 5
Herbicidal effects Po (pale smartweed (Po) [13]): 5
Herbicidal effects Ch [14]: 5
Herbicidal effects Am (slender amaranth (Am) [15]): 5
Phytotoxicity Ze (corn (Ze) [16]): 1
Herbicidal effects Mo (monochoria (Mo)): 5
Herbicidal effects Ec (barnyardgrass (Ec) [17]): 5
Herbicidal effects Sc (bulrush (Sc)): 5
Phytotoxicity Tr (wheat (Tr)): 1
Phytotoxicity Go (cotton (Go)): 0
Phytotoxicity Gl (soybean (Gl)): 1
Herbicidal effects Se (green foxtail (Se) [18]): 5
Herbicidal effects Po (pale smartweed (Po) [19]): 5
Herbicidal effects Ab (China jute (Ab) [20]): 5
Herbicidal effects Ch [21]: 5
Herbicidal effects Am (slender amaranth (Am) [22]): 5
Herbicidal effects Se (green foxtail (Se) [23]): 5
Herbicidal effects Po (pale smartweed (Po) [24]): 5
Herbicidal effects Ab (China jute (Ab) [25]): 5
Herbicidal effects Ch [26]: 5
Herbicidal effects Am (slender amaranth (Am) [27]): 5
Herbicidal effects Ec (barnyardgrass (Ec) [28]): 5
Herbicidal effects Di (Digitaria ciliaris (Di)): 5
Herbicidal effects Ci (rice flatsedge (Ci) [29]): 5
Herbicidal effects Po (pale smartweed (Po) [30]): 5
Herbicidal effects Ch [31]: 5
Herbicidal effects Am (slender amaranth (Am) [32]): 5

Cn1c(C(F)(F)F)ccc(-c2cc3c(cc2F)OCC(=O)N3CC#N)c1=O [Compound 2-17]
Herbicidal effects Ec (barnyardgrass (Ec) [11]): 5
Herbicidal effects Di (Diaitaria ciliaris (Di)): 5
Herbicidal effects Ci (rice flatsedge (Ci) [12]): 5
Herbicidal effects Po (pale smartweed (Po) [13]): 5
Herbicidal effects Ch [14]: 5
Herbicidal effects Am (slender amaranth (Am) [15]): 5
Herbicidal effects Mo (monochoria (Mo)): 5
Herbicidal effects Ec (barnyardgrass (Ec) [17]): 5
Herbicidal effects Sc (bulrush (Sc)): 5
Phytotoxicity Ze (corn (Ze) [33]): 2
Herbicidal effects Po (pale smartweed (Po) [34]): 5
Herbicidal effects Ab (China jute (Ab) [35]): 5
Herbicidal effects Ch [36]: 5
Herbicidal effects Am (slender amaranth (Am) [37]): 5
Herbicidal effects Ec (barnyardgrass (Ec) [28]): 5
Herbicidal effects Di (Digitaria ciliaris (Di)): 5
Herbicidal effects Ci (rice flatsedge (Ci) [29]): 5
Herbicidal effects Po (pale smartweed (Po) [30]): 5
Herbicidal effects Ch [31]: 5
Herbicidal effects Am (slender amaranth (Am) [32]): 5
